Values of other authors as cited in patent CN116041271A, “一种氟苯尼考中间体的制备方法” (Shandong Weiyan Biotechnology Co ltd, priority 2022, dated 2023).

Key:
[1] = test system: Fusobacterium (梭杆菌); settings: in words; cattle
[2] = in words
[3] = administered in feed
[4] = in words; remark: listed apart in the source

Which results are given for CS(=O)(=O)c1ccc([C@@H](O)[C@@H](CF)NC(=O)C(Cl)Cl)cc1 [氟苯尼考]?
antibacterial effect relative to chloramphenicol and thiamphenicol (compared with chloramphenicol, thiamphenicol): 15-20 times; antibacterial spectrum (in words): 广; bacteriostatic action (in words): 强; minimum inhibitory concentration (MIC) (in words): 低; therapeutic effect on bovine foot rot caused by Fusobacterium [1]: 有较好疗效; control of disease [2]: 能迅速控制病情; time after administration to peak drug concentration in tissue [3]: 60 min; potential risk of causing aplastic anemia [4]: 无潜在致再生障碍性贫血的隐患; residue [4]: 无残留; safety [4]: 安全性高; toxicity [4]: 无毒
